The target in the experiment is T1, FK506 binding protein 12 (FKBP12) (Homo sapiens, UniProt P42345+P62942).
T1 construct: gene FKBP1A; pAsh-FKBP12 co-transfected with phAG-mTOR in HeLa cells; with mTOR
As to the kind of experiment: Fluoppi cell assay of FKBP12-mTOR ternary complex formation in HeLa cells. The class given is cell-based.

Usually EC50 stands for the concentration that produces a half-maximal response. A low value points to a more potent agent.

T1 sequence (P62942 2-108, other chains not shown): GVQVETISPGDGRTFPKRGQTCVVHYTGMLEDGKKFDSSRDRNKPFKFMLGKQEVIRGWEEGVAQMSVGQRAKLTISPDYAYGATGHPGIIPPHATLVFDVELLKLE

`COC1CC(O)CC(=O)CC(=O)N2CCCCC2C(=O)OC(C(C)CC2CCC(O)C(OC)C2)CC(=O)C(C)C=C(C)C(O)C(OC)C(=O)C(C)CC(C)C=CC=CC=C1C` (mixture of isomers) [compound 1, 1] yielded an EC50 of 1880 nM.

The record behind these values is PMC8113240 (Scientific Reports, 2021).
